Read-outs that look alike come from different tables or passages of the source.
Legend:
Mouse sarcoma S180 cells [1] = assay: antitumor activity in mouse cancer cell transplant model after oral administration; assay type: in vivo, mice; conditions: for tumor weight, % of that of the control group: oral
Experimental: (§1) The test compound CA-1 was suspended at predetermined concentrations in 1% CMC. The vehicle (1% CMC) was administered to the control group.
(§2) Mouse sarcoma S180 cells were suspended at 1×10^7 cells/mL in a serum-free RPMI culture medium and the suspension was kept on ice. Then, the S180 cell suspension was subcutaneously inoculated at 1×10^6 cells/100 μL/mouse into the flanks of female ddY mice (5-week old) with an injection needle of 23G. The mice were maintained for one week for engraftment of the S180 cells. Subsequently, the test compound (5 mg/kg, 10 mg/kg and 25 mg/kg) or the vehicle (1% CMC) was intraperitoneally administered on a schedule of on every two days, 7 times in total. The antitumor activity was evaluated as follows: one day after the final administration, tumors were isolated and weighed, and then the tumor weight was compared between the test compound administration groups and the control group.
The test was performed in the same manner as in Example 3, except that oral administration was performed instead of intraperitoneal administration and that a 50 mg/kg administration group was included instead of the 5 mg/kg administration group.

[2] = system: normal human umbilical vein endothelial cells (HUVEC); assay: anti-proliferative activity against HUVEC (WST-8); assay type: cell-based; conditions: for selective anti-proliferative activity against vascular endothelial cells: HUVEC versus KB3-1, FIGS. 8 to 12; for IC50: Homo sapiens, HUVEC, 72 hours culture with compound, WST-8; for S.I. (Selective Index): IC50 against KB3-1 divided by IC50 against HUVEC
Experimental: (§3) CA-1, which is represented by formula (II), was used as test compound, and an existing anticancer drug doxorubicin was used as a control compound. The test compound and the control compound were separately dissolved at predetermined concentrations in EtOH. The cells used were normal human umbilical vein endothelial cells (HUVEC) and human pharyngeal carcinoma KB3-1 cells.
(§4) HUVEC and KB3-1 were seeded in separate 96-well multiwell plates at 2×10^3 cells/100 μL/well and cultured in an atmosphere of 5% CO2 at 37° C. for 24 hours. Next, 1.0 μL each of the ethanol solutions containing the test compound or the control compound at various concentrations were added, and the cells were cultured under the same conditions for additional 72 hours. After 72 hours, 10 μL of WST-8 (2-(2-methoxy-4-nitrophenyl)-3-(4-nitrophenyl)-5-(2,4-disulfophenyl)-2H-tetrazolium, monosodium salt) reagent was added. After 3-hour incubation, the amount of water-soluble formazan formed in viable cells was calorimetrically determined by measurement at OD 450 nm, and the growth inhibition ratio was calculated by comparison of the amount of formazan between the compound treatment groups and the non-treatment group. The anti-proliferative activities of the test compound and the control compound on each type of cells were expressed as a 50% growth inhibitory concentration (IC50 value). The cell type selectivity (Selective Index (S. I.) value) was expressed as a value resulting from division of the IC50 value against KB3-1 by the IC50 value against HUVEC.
CA-1, CA-2, CA-3, CA-4 and CA-5 were evaluated for anti-proliferative activity against normal human umbilical vein endothelial cells (HUVEC) and human pharyngeal carcinoma KB3-1 cells. The five test compounds were separately dissolved at predetermined concentrations in EtOH. HUVEC and KB3-1 were seeded in separate 96-well multiwell plates at 2×10^3 cells/100 μL/well and cultured in an atmosphere of 5% CO2 at 37° C. for 24 hrs. Next, 1.0 μL each of the ethanol solutions containing the test compound or the control compound at various concentrations were added, and the cells were cultured under the same conditions for additional 72 hours. After 72 hours, 10 μL of WST-8 (2-(2-methoxy-4-nitrophenyl)-3-(4-nitrophenyl)-5-(2,4-disulfophenyl)-2H-tetrazolium, monosodium salt) reagent was added. After 3-hour incubation, the amount of water-soluble formazan formed in viable cells was colorimetrically determined measurement at OD 450 nm, and the growth inhibition ratio was calculated by comparison of the amount of formazan between the compound treatment groups and the non-treatment group.

[3] = system: human umbilical vein endothelial cells (HUVEC); assay: migration and tubulogenesis of HUVEC; assay type: cell-based
[4] = system: Matrigel with proangiogenic factor bFGF (angiogenesis); assay: in vivo anti-angiogenic activity after intraperitoneal administration (Matrigel, hemoglobin); conditions: not less than 10 mg/kg, once every two days, 5 times, ddY mice
Experimental: (§5) The test compound CA-1 was suspended at predetermined concentrations in 1% CMC. To control groups, the vehicle (1% CMC) was administered.
(§6) To 500 μL of Matrigel (trade name, manufactured by BD), 200 ng/mL of a proangiogenic factor bFGF (basic fibroblast growth factor) and 100 U/mL of heparin were added, and the mixture was subcutaneously injected into the flanks of female ddY mice (6-week old) with an injection needle of 23G. After the Matrigel injection, the test compound CA-1 or the vehicle (1% CMC) was intraperitoneally administered on a schedule of once every two days, 5 times in total. Aside from this, Matrigel without bFGF was injected into a group of mice and then the vehicle was administered thereto (negative control group). The anti-angiogenic effect was evaluated as follows: the day after the final administration of the test compound, the implanted Matrigel was harvested and weighed, and then the amount of hemoglobin accumulated in the Matrigel was compared between the test compound administration groups and the control groups. Significance analysis was performed using a Dunnett's test at a significance level of 5%.

[5] = system: Matrigel with proangiogenic factor bFGF (angiogenesis); assay: in vivo anti-angiogenic activity after oral administration (Matrigel, hemoglobin); set-up: species or system mice
Experimental: as §5, §6
The test was performed in the same manner as in Example 3, except that oral administration was performed instead of intraperitoneal administration and that a 5.0 mg/kg administration group was additionally included.

Mouse sarcoma S180 cells [6] = assay: antitumor activity in mouse cancer cell transplant model after intraperitoneal administration; assay type: in vivo, mice; conditions: for tumor weight, % of that of the control group: intraperitoneal, once every two days, 7 times
Experimental: as §1, §2

[7] = system: human pharyngeal carcinoma KB3-1 cells; assay: anti-proliferative activity against KB3-1 (WST-8); assay type: cell-based; conditions: KB 3-1, 72 hours culture with compound
Experimental: as §3
as §4, with “After 72 hours, 10 μL of WST-8 (2-(2-methoxy-4-nitrophenyl)-3-(4-nitrophenyl)-5-(2,4-disulfophenyl)-2H-tetrazolium, monosodium salt) reagent was added.” left out, “The anti-proliferative activities of the test compound and the control compound on each type of cells were expressed as a 50% growth inhibitory concentration (IC50 value).” left out
CA-1, CA-2, CA-3, CA-4 and CA-5 were evaluated for anti-proliferative activity against normal human umbilical vein endothelial cells (HUVEC) and human pharyngeal carcinoma KB3-1 cells. […]

[8] = system: human umbilical vein endothelial cells (HUVEC); conditions: cited from earlier work
[9] = system: human umbilical vein endothelial cells (HUVEC); conditions: background art; cited from earlier work

SMILES: C[C@]12C=CC3=CC4=C(CCCC4=O)O[C@H]3[C@@H]1CC[C@@H]2c1ccc2ccncc2c1 [CA-1, (3R,3aR,11aS,11bR)-3-(isoquinolin-7-yl)-3a-methyl-1,2,3,3a,9,10,11a,11b-octahydrocyclopenta[c]xanthen-7(8H)-one]
- tumor weight, % of that of the control group (Mouse sarcoma S180 cells [1]; 10 mg/kg): 67%
- tumor weight, % of that of the control group (Mouse sarcoma S180 cells [1]; 25 mg/kg): 50%
- tumor weight, % of that of the control group (Mouse sarcoma S180 cells [1]; 50 mg/kg): 25%
- weight loss, diarrhea, visual abnormalities in organs (Mouse sarcoma S180 cells [1]; oral, 10, 25 and 50 mg/kg groups): In no groups, weight loss or diarrhea, or visual abnormalities in organs of the mice were observed
- selective anti-proliferative activity against vascular endothelial cells [2]: selectively inhibits the growth of vascular endothelial cells
- IC50 [2]: 100 nM
- S.I. (Selective Index) [2]: 105
- anti-proliferative activity against vascular endothelial cells, times stronger than against other cancer cells ([2]; versus other cancer cells): more than 100 times
- migration and tubulogenesis of HUVEC [3]: inhibits the migration and tubulogenesis of human umbilical vein endothelial cells (HUVEC)
- amount of hemoglobin accumulated in the Matrigel [4]: significantly reduced the amount of hemoglobin accumulated in the Matrigel to almost the same level as that of the group injected with Matrigel not supplemented with the proangiogenic factor bFGF
- amount of hemoglobin accumulated in the Matrigel ([5]; 50 mg/kg): reduced to almost the same level as that of the group injected with Matrigel not supplemented with the proangiogenic factor bFGF
- amount of hemoglobin accumulated in the Matrigel ([5]; not less than 10 mg/kg): significantly reduced the amount of hemoglobin accumulated in the Matrigel
- tumor weight, % of that of the control group (Mouse sarcoma S180 cells [6]; 5 mg/kg): 34%
- tumor weight, % of that of the control group (Mouse sarcoma S180 cells [6]; 10 mg/kg): 23%
- tumor weight, % of that of the control group (Mouse sarcoma S180 cells [6]; 25 mg/kg): 17%
- weight loss, diarrhea, visual abnormalities in organs (Mouse sarcoma S180 cells [6]; intraperitoneal, 5, 10 and 25 mg/kg groups): In no groups, weight loss or diarrhea, or visual abnormalities in organs of the mice were observed
- IC50 [7]: 10500 nM

SMILES: C[C@]12C=CC3=CC4=C(CC(CO)CC4=O)O[C@H]3[C@@H]1CC[C@@H]2c1ccc2ccncc2c1 (stereo partly drawn) [CA-2, (3R,3aR,11aS,11bR)-9-(hydroxymethyl)-3-(isoquinolin-7-yl)-3a-methyl-1,3,3a,8,9,10,11a,11b-octahydrocyclopenta[c]xanthen-7(2H)-one]
- selective anti-proliferative activity against vascular endothelial cells [2]: selectively inhibits the growth of vascular endothelial cells
- selective anti-proliferative activity against vascular endothelial cells ([2]; listed as (XVIII)): selective anti-proliferative activity against vascular endothelial cells in a broad range of concentration

SMILES: C[C@]12C=CC3=CC4=C(CC(CN)CC4=O)O[C@H]3[C@@H]1CC[C@@H]2c1ccc2ccncc2c1 (stereo partly shown) [CA-3]
- selective anti-proliferative activity against vascular endothelial cells [2]: selectively inhibits the growth of vascular endothelial cells
- selective anti-proliferative activity against vascular endothelial cells ([2]; listed as (XIX)): selective anti-proliferative activity against vascular endothelial cells in a broad range of concentration

SMILES: C[C@]12C=CC3=CC4=C(CC(C(=O)O)CC4=O)O[C@H]3[C@@H]1CC[C@@H]2c1ccc2ccncc2c1 (stereo partly drawn) [CA-4, (3R,3aR,11aS,11bR)-3-(isoquinolin-7-yl)-3a-methyl-7-oxo-1,2,3a,7,8,9,10,11a,11b-decahydrocyclopenta[c]xanthene-9-carboxylic acid]
- selective anti-proliferative activity against vascular endothelial cells [2]: selectively inhibits the growth of vascular endothelial cells
- selective anti-proliferative activity against vascular endothelial cells ([2]; listed as (XXIII)): selective anti-proliferative activity against vascular endothelial cells in a broad range of concentration

SMILES: C[C@]12C=CC3=CC4=C(CCCC4=O)O[C@H]3[C@@H]1CC(=O)[C@@H]2c1ccc2ccncc2c1 [CA-5, (3R,3aS,11aS,11bR)-3-(isoquinolin-7-yl)-3a-methyl-1,3,3a,9,10,11b-hexahydrocyclopenta[c]xanthene-2,7(8H,11aH)-dione]
- selective anti-proliferative activity against vascular endothelial cells [2]: selectively inhibits the growth of vascular endothelial cells
- selective anti-proliferative activity against vascular endothelial cells ([2]; listed as (LIV)): selective anti-proliferative activity against vascular endothelial cells in a broad range of concentration

SMILES: CN(C)[C@H]1C[C@@]23CC[C@@]4(O2)C(=CC[C@]2(C)[C@@H](c5ccc6ccncc6c5)CC[C@H]24)C=C3[C@@H](O)[C@@H]1O [cortistatin A]
- IC50 ([8]; background art, read-out: IC50 against HUVEC): 1.8 nM
- anti-proliferative activity against HUVEC, times stronger than against other cancer cells ([8]; versus other cancer cells): more than 3000 times
- migration and tubulogenesis of HUVEC [9]: inhibits the migration and tubulogenesis of HUVEC

SMILES: COc1cccc2c1C(=O)c1c(O)c3c(c(O)c1C2=O)C[C@@](O)(C(=O)CO)C[C@@H]3O[C@H]1C[C@H](N)[C@H](O)[C@H](C)O1 [doxorubicin, reference compound]
- IC50 [2]: 130 nM
- S.I. (Selective Index) [2]: 2.7
- IC50 [7]: 360 nM

From patent US8791263B2, “Cortistatin A analog and use thereof” (Osaka University, priority 2010, dated 2014)
